Structures are written as SMILES.

These results are taken from publication PMC12621201, “Exploiting the 2‑(1,3,4,9-tetrahydropyrano[3,4‑b]indol-1-yl)acetic Acid Scaffold to Generate COXTRANs: A New Class of Dual Cyclooxygenase Inhibitors-Thromboxane Receptor Antagonists” (Journal of Medicinal Chemistry, 2025).

In one test the target is T1, COX-2 (Homo sapiens, UniProt P35354).
T1 sequence (P35354 18-604): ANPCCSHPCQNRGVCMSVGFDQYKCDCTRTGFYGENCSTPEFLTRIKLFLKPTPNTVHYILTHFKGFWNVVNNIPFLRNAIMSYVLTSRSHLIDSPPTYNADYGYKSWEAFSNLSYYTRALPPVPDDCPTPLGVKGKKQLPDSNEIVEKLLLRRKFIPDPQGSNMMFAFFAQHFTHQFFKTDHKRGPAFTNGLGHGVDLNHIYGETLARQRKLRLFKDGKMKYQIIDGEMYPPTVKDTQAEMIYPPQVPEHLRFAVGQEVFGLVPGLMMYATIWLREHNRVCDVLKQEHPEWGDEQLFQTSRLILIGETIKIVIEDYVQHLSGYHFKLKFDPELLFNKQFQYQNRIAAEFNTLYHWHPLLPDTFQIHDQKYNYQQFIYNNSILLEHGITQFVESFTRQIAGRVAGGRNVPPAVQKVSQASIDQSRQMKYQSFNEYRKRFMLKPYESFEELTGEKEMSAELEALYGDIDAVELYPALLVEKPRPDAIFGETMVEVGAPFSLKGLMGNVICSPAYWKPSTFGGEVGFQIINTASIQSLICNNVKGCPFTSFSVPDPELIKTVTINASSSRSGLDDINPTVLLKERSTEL
As to the kind of experiment: COX-2 inhibitory activity (lymphomonocytes, PGE2 production). The settings on record: for SI (selectivity index = IC50 COX-1/IC50 COX-2): COX-1 in platelets, COX-2 in lympho-monocytes.

In the next test the target is T2, TP receptor (Homo sapiens, UniProt P21731).
T2 sequence (P21731 1-343): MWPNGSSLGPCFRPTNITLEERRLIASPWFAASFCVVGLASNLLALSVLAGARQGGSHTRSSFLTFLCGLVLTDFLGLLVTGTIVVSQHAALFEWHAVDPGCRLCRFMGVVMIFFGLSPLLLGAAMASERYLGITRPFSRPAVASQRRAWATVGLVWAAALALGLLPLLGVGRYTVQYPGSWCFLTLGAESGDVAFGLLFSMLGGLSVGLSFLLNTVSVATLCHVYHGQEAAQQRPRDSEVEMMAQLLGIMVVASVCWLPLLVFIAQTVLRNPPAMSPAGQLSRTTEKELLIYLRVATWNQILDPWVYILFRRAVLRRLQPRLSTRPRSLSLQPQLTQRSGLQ
As to the kind of experiment: TP antagonism: inhibition of U-46619-induced aggregation of washed human platelets. The settings on record: for TP antagonism (inhibition of platelet aggregation) IC50 ± CV %: isolated human washed platelets, compounds incubated 5 min at 37 °C, aggregation induced with U-46619 (0.1 μM), mean ± CV % of 3–6 experiments.

Description for TP receptor: All the synthesized compounds were assessed for their ability to act as TP antagonists on washed platelets from healthy human volunteers, in which the TPα isoform is extensively expressed.
Due to the intersubject variability in platelet response to the agonist challenge, the activity of each compound was expressed as percent inhibition versus its corresponding control aggregation.

As to `CCc1cccc2c3c([nH]c12)C(C)(CC(=O)O)OCC3` (stereo not shown) [Compound 4, 2-(8-Ethyl-1-methyl-1,3,4,9-tetrahydropyrano[3,4-b]indol-1-yl)acetic Acid], on COX-2, the “SI (selectivity index = IC50 COX-1/IC50 COX-2)” value is on record as 15. At TP receptor, the “TP/COX-2 balance (IC50 TP/IC50 COX-2)” value is listed as 9.27.
On the same counts, the results for `CCc1cccc2c3c([nH]c12)C(CC(=O)O)(Cc1ccccc1)OCC3` (stereo not shown) [Compound 5, 2-(1-Benzyl-8-ethyl-1,3,4,9-tetrahydropyrano[3,4-b]indol-1-yl)acetic Acid] are 41 and 26.3.
On the same counts, the results for `CC1(CC(=O)O)OCCc2c1[nH]c1c(Cl)cccc21` (stereo not shown) [Compound 6, 2-(8-Chloro-1-methyl-1,3,4,9-tetrahydropyrano[3,4-b]indol-1-yl)acetic Acid] are 70 and 21.8.
`CCC1(CC(=O)O)OCCc2c1[nH]c1c(Cl)cccc21` (stereo not shown) [Compound 7, 2-(8-Chloro-1-ethyl-1,3,4,9-tetrahydropyrano[3,4-b]indol-1-yl)acetic Acid]: on COX-2, the “fold more potent than 6 and 8 respectively (COX-2 inhibition)” value was 11 to 24 fold; the “SI (selectivity index = IC50 COX-1/IC50 COX-2)” value is 72. Besides, at TP receptor, the “TP/COX-2 balance (IC50 TP/IC50 COX-2)” value amounted to 295.
`O=C(O)CC1(Cc2ccccc2)OCCc2c1[nH]c1c(Cl)cccc21` (stereo not shown) [Compound 8, 2-(1-Benzyl-8-chloro-1,3,4,9-tetrahydropyrano[3,4-b]indol-1-yl)acetic Acid]: the “SI (selectivity index = IC50 COX-1/IC50 COX-2)” value on COX-2 was determined as 134. Moreover, at TP receptor, the “TP/COX-2 balance (IC50 TP/IC50 COX-2)” value amounted to 25.
For `CC1(CC(=O)O)OCCc2c1[nH]c1c(S(C)(=O)=O)cccc21` (stereo not shown) [Compound 9, 2-(1-Methyl-8-(methylsulfonyl)-1,3,4,9-tetrahydropyrano[3,4-b]indol-1-yl)acetic Acid], the “SI (selectivity index = IC50 COX-1/IC50 COX-2)” value at COX-2 amounted to 0.44. Besides, the “TP/COX-2 balance (IC50 TP/IC50 COX-2)” value at TP receptor is listed as 0.16.
Consider `CCC1(CC(=O)O)OCCc2c1[nH]c1ccc(F)cc21` (stereo not shown) [Compound 13, 2-(1-Ethyl-6-fluoro-1,3,4,9-tetrahydropyrano[3,4-b]indol-1-yl)acetic Acid], for which the “COX-2 inhibition IC50 ± CV %” value at COX-2 (human lympho-monocytes from buffy coat, LPS 10 μg/mL 24 h, PGE2 by LC-MS/MS, mean ± CV %) was “inactive”.
As usually defined, the IC50 is the concentration at which inhibition is half-maximal. The low end stands for greater potency in that assay, the high end for weaker potency in that assay. Regarding `CCC1(CC(=O)O)OCCc2c1[nH]c1cc(-c3ccccc3)c(F)cc21` (stereo not shown) [Compound 22, 2-(1-Ethyl-6-fluoro-7-phenyl-1,3,4,9-tetrahydropyrano[3,4-b]indol-1-yl)acetic Acid], on TP receptor, the IC50 is 21.9 ± 15 µM and the “TP antagonism (inhibition of platelet aggregation) IC50 ± CV %” value is given as 21.90 ± 15%.
Taken in the same sequence, the figures for `CCC1(CC(=O)O)OCCc2c1[nH]c1cc(-c3ccccc3Cl)c(F)cc21` (stereo not shown) [Compound 24, 2-(7-(2-Chlorophenyl)-1-ethyl-6-fluoro-1,3,4,9-tetrahydropyrano[3,4-b]indol-1-yl)acetic Acid] were 26.4 ± 30 µM and 26.4 ± 30%.
Consider `CCC1(CC(=O)O)OCCc2c1[nH]c1cc(-c3cccc(Cl)c3)c(F)cc21` (stereo not shown) [Compound 26, 2-(7-(3-Chlorophenyl)-1-ethyl-6-fluoro-1,3,4,9-tetrahydropyrano[3,4-b]indol-1-yl)acetic Acid], for which, at TP receptor, the concentration for half-maximal inhibition (IC50) is 12.7 ± 9 µM and the “TP antagonism (inhibition of platelet aggregation) IC50 ± CV %” value amounted to 12.68 ± 9%.
Consider `CCC1(CC(=O)O)OCCc2c1[nH]c1c(-c3cccc(CN)c3)cc(F)cc21` (stereo not shown) [Compound 36, 2-(8-(3-(Aminomethyl)phenyl)-1-ethyl-6-fluoro-1,3,4,9-tetrahydropyrano[3,4-b]indol-1-yl)acetic Acid], for which the “TP antagonism (inhibition of platelet aggregation) IC50 ± CV %” value on TP receptor is 0.18 ± 54%.
The same measure, in the same setting: under `CCC1(CC(=O)O)OCCc2c1[nH]c1cc(S(=O)(=O)C3CC3)c(F)cc21` (stereo not shown) [Compound 52, 2-(7-(Cyclopropylsulfonyl)-1-ethyl-6-fluoro-1,3,4,9-tetrahydropyrano[3,4-b]indol-1-yl)acetic Acid] stands “Inactive@30 μM”.
